This is an account of results in ChEMBL document CHEMBL2094260, “Malaria Box Tuberculosis Screening Data”.

As usually defined, the inhibition is the relative decrease from the control value, in per cent.

SMILES strings stand for the structures.

Test [1] has as its system Mycobacterium tuberculosis. Nature of the test: MMV: Screen against Mtb, single point, non replicating, at 25uM. In kind it is functional.
For test [2], the system named is Mycobacterium tuberculosis. Nature of the test: MMV: Screen against Mtb, single point, replicating, at 25uM. In kind it is functional.

In the case of `c1ccc(Cn2c(N=Nc3c(Nc4ccccc4)ccc4ccccc34)nc3ccccc32)cc1`, the values for the inhibition at 25 µM in test [1] and in test [2] were 18.7% and 14.9%, respectively.
For the compound `COc1ccc2c(=O)cc(C(Cl)(Cl)Cl)oc2c1`, the inhibition at 25 µM in test [1] came to 18.3%; in test [2], 25.3%.
On the same counts, the results for `CCN(CC)CCn1c(=N)n(CC(O)c2ccc(Cl)c(Cl)c2)c2ccccc21` (stereo not given) are 10.1% and 36.2%.
With `CCCCNCC(O)(c1ccc(Cl)cc1)c1ccc(Cl)cc1`, the inhibition at 25 µM in test [1] was 9.41%; in test [2], 16.9%.
For the compound `COc1ccc(NC(=O)C2c3ccccc3C(=O)N(CC(C)C)C2c2cccs2)cc1Cl` (stereo not given), the inhibition at 25 µM in test [1] was 22.2%; in test [2], -1.46%.
For the compound `COc1cccc(C(=O)NC(c2ccc(C)cc2)c2cc(Cl)c3cccnc3c2O)c1` (stereo not given), the values for the inhibition at 25 µM in test [1] and in test [2] were 14.3% and 10.4%, respectively.
With `N#Cc1nc(Cc2cccc3ccccc23)oc1N1CCN(C(c2ccccc2)c2ccccc2)CC1`, the inhibition at 25 µM in test [1] was found to be 18.9%; in test [2], 7.13%.
On the same counts, the results for `CCCCCCOC(=O)C1=C(C)NC(=O)NC1c1ccccc1F` (stereo not given) are 6.8% and 9.78%.
As for `CCOC(=O)c1cnc2c(C)cc(C)cc2c1Nc1ccc(OC)c(OC)c1`, the inhibition at 25 µM in test [1] turned out to be 3.83%; in test [2], 4.46%.
For the compound `CCOC(=O)c1c(NC(=O)c2ccccc2)sc2c(O)c(CN(CC)CC)ccc12`, the inhibition at 25 µM in test [1] was 16%; in test [2], 51.8%.
Taken in the same sequence, the figures for `COc1ccccc1CNC(=O)C1c2ccccc2C(=O)N(CC(C)C)C1c1cccs1` (stereo not given) were 9.76% and 15.7%.
On the same counts, the results for `CCOc1cc2c(cc1OCC)C(c1cc(Cl)ccc1O)NCC2` (stereo not given) are -6.67% and 7.45%.
Taken in the same sequence, the figures for `COc1ccc(C2=C(c3ccc(OC)cc3)C3(c4ccccc4)C(=O)C2(c2ccccc2)C2C(=O)N(c4ccc(C)cc4)C(=O)C23)cc1` (stereo not given) were 11% and 10.1%.
For the compound `CCOc1ccc2c(c1)CN(Cc1ccc(Cl)cc1)CO2`, the inhibition at 25 µM in test [1] amounted to 20.5%; in test [2], 16.1%.
As to `CCOC(=O)C1(Cc2ccccc2)CCN(Cc2cccc(OC)c2O)CC1`, the inhibition at 25 µM was determined as 8.77% in test [1] and 9.17% in test [2].
Take `O=c1cc(NC2CCN(CCCc3ccccc3)CC2)c2cc(Cl)ccc2o1`: the inhibition at 25 µM in test [1] stood at 14.3%; in test [2], 24.2%.
Taken in the same sequence, the figures for `O=C(NCCCN1CCC(N2CCCCC2)CC1)C1=Cc2cc(Br)ccc2OC1` were 6.82% and 14.7%.
For `CCN(CC)CCNc1ccnc2cc3ccccc3cc12`, the inhibition at 25 µM in test [1] is 0.0721%; in test [2], 0.862%.
Consider `COCCn1c(C)nc2ccccc2c1=O`, for which the inhibition at 25 µM came out at 13.6% in test [1] and 6.59% in test [2].
Consider `Cc1cc(NC(=O)c2ccc(-c3ccccc3)cc2)no1`, for which the inhibition at 25 µM in test [1] stood at 13.8%; in test [2] it was 8.72%.
Taken in the same sequence, the figures for `CCOC(=O)C1=C(c2ccccc2)N=c2sc(=Cc3cc(C)n(-c4ccc(F)cc4)c3C)c(=O)n2C1c1cccc(OC)c1OC` (stereo not given) were 6.1% and 1.88%.
On the same counts, the results for `Cc1cccc(Nc2nc(N)c3ccccc3n2)c1` are -2.28% and 9.63%.
On the same counts, the results for `CCc1ccc(CNCC(O)c2ccccc2)cc1` (stereo not given) are 4.33% and 35.5%.
For the compound `Cc1sc(NC(=O)c2ccco2)c(C(c2cccnc2)N2CCC(Cc3ccccc3)CC2)c1C` (stereo not given), the inhibition at 25 µM in test [1] is -1.7%; in test [2], 21.7%.
For the compound `O=C(CCc1ccco1)NC1CCN(CC2(c3ccc(Cl)cc3)CCC2)CC1`, the results for the inhibition at 25 µM in test [1] and in test [2] were 20.8% and 31.6%, respectively.
Consider `CCOc1cc(Cl)c(C(C)NC(=O)c2ccccc2)cc1OCC` (stereo not given), for which the inhibition at 25 µM in test [1] stood at 2.61%; in test [2], 10.4%.
For the compound `COc1ccc(C(=O)Nc2ccc3nc(N4CCCCC4)cc(C)c3c2)cc1OC`, the inhibition at 25 µM in test [1] was determined as 23.7%; in test [2], 21.3%.
On the same counts, the results for `Cc1ccc(C)c(Cn2c(N3CCC(C(=O)NCc4cccs4)CC3)nc3ccccc32)c1` are 10.4% and 22%.
Taken in the same sequence, the figures for `FC(F)(F)c1cccc(CNC2CCN(CCc3ccccc3)CC2)c1` were 2.96% and 22.8%.
On the same counts, the results for `CCOC(=O)c1cnc2ccc(Cl)cc2c1NCCCN(C)C` are -0.993% and 2.59%.
In the case of `COc1cc(SC)ccc1C(=O)N1CCCC(C)C1` (stereo not given), the inhibition at 25 µM in test [1] is 8.89%; in test [2], 17.4%.
With `COc1ccc(C(O)(CCC(C)C)C(CN2CCOCC2)c2ccc(Cl)cc2)cc1` (stereo not given), the inhibition at 25 µM in test [1] was 10%; in test [2], 4.78%.
On the same counts, the results for `COC(=O)c1ccc(C2C3=C(O)CC(c4ccc(F)cc4)CC3=Nc3ccccc3N2C(=O)c2ccccc2)cc1` (stereo not given) are 18.9% and 28.3%.
On the same counts, the results for `CC1CCN(Cc2c(O)ccc3cc(-c4nc5ccccc5s4)c(=O)oc23)CC1` are 12% and 8.23%.
Consider `OC(CNC1CCCC1)Cn1c2ccccc2c2ccccc21` (stereo not given), for which the inhibition at 25 µM in test [1] was 13.1%; in test [2] it was 27.5%.
Taken in the same sequence, the figures for `O=C(NC(c1ccccc1)c1ccc2cccnc2c1O)c1ccccc1` (stereo not given) were 17.1% and 7.65%.
Taken in the same sequence, the figures for `C=CCc1c(C)nc2ccccc2c1O` were 1.56% and 15.2%.
Regarding `O=C(CCl)NCCOc1ccc(Cl)cc1Cl`, the inhibition at 25 µM was 25.3% in test [1] and 35% in test [2].
Taken in the same sequence, the figures for `COc1cc2cc(C(=O)Nc3ccccc3)c(N)nc2cc1OC` were 1.39% and 17.1%.
Consider `COc1cccc(C(=O)Nc2ccc(-c3nc4ccccc4[nH]3)cc2)c1`, for which the inhibition at 25 µM in test [1] is 0.862%; in test [2] it was 7.2%.
As for `CCOc1cccc(C(=O)Nc2ccc(-c3nc4ccccc4[nH]3)cc2)c1`, the inhibition at 25 µM was 18% in test [1] and 15.5% in test [2].
Taken in the same sequence, the figures for `CC(NCc1ccccc1)c1cc(Cl)ccc1O` (stereo not given) were 14.8% and 21.2%.
Regarding `Oc1ccc(-c2nc(-c3ccc4oc5ccc(-c6[nH]c(-c7ccc(O)cc7)nc6-c6ccccc6)cc5c4c3)c(-c3ccccc3)[nH]2)cc1`, the inhibition at 25 µM in test [1] was found to be 13%; in test [2], 19.2%.
For the compound `CCc1ccc(Nc2cc(C)c3ccc(O)cc3n2)cc1`, the inhibition at 25 µM in test [1] stood at 17.3%; in test [2], 4.16%.
On the same counts, the results for `CN(C)CCCNCc1ccc(-c2ccc(F)c(Cl)c2)o1` are 1.91% and 23.9%.
Regarding `OC(CNCC1CCCO1)Cn1c2ccc(Cl)cc2c2cc(Cl)ccc21` (stereo not given), the inhibition at 25 µM was determined as 20.4% in test [1] and 1.28% in test [2].
Taken in the same sequence, the figures for `CN(C)c1ccc(C(O)(c2ccc(N(C)C)cc2)c2ccc(N(C)C)cc2)cc1` [METHYLROSANILINE] were 59.8% and 28.6%.
As to `COc1ccc(CCn2c(=N)c(C(=O)NCc3cccnc3)cc3c(=O)n4cccc(C)c4nc32)cc1`, the inhibition at 25 µM in test [1] turned out to be 8.77%; in test [2], 4.47%.
Taken in the same sequence, the figures for `COc1cc(C(=O)ON=C(N)Cc2cccc3ccccc23)cc(OC)c1OC` were 24.2% and 59.3%.
Taken in the same sequence, the figures for `CCN1CCN(c2c(C(=O)c3ccccc3)cnc3cc(OC)c(OC)cc23)CC1` were 1.14% and 5.25%.
Taken in the same sequence, the figures for `COc1cccc(NC(=O)Cn2c(C)c(C#N)c3ccccc32)c1` were 8.89% and 7.96%.
With `COc1ccc(-c2nc3cc(Cc4ccc5[nH]c(-c6ccc(OC)cc6)nc5c4)ccc3[nH]2)cc1`, the inhibition at 25 µM in test [1] came to 29.3%; in test [2], 41.7%.
In the case of `CCOc1ccc(-n2cc(-c3ccccc3)c3c(SCc4cc(C)ccc4C)ncnc32)cc1`, the inhibition at 25 µM in test [1] was 21.9%; in test [2], -0.392%.
On the same counts, the results for `Cc1[nH]c(-c2ccc(F)cc2)cc1C(=O)NC1CCN(Cc2ccccc2)CC1` are 4% and 20.7%.
With `COc1ccc(CNC2CCN(c3ccc(NC(=O)c4cccc(Cl)c4)cc3)CC2)cc1OC`, the inhibition at 25 µM came out at 19.2% in test [1] and 47.3% in test [2].
Taken in the same sequence, the figures for `CCCCc1ccc(NS(=O)(=O)c2cc3c4c(c2)CCN4C(=O)CC3)cc1` were -2.45% and 7.2%.
For `Cc1ccc(-c2nc3ccccc3o2)cc1NCc1cc(Cc2ccccc2)ccc1O`, the inhibition at 25 µM in test [1] worked out at 10.4%; in test [2], 1.18%.
Take `O=C(Nc1ccc(-c2nc3cc4ccccc4cc3[nH]2)cc1)c1cccc(Br)c1`: the inhibition at 25 µM in test [1] was 37%; in test [2] it was 8.07%.
On to `COc1ccc(C)c2sc(N(Cc3cccnc3)C(=O)c3ccc(C#N)cc3)nc12`, for which the inhibition at 25 µM in test [1] came out at 23.9%; in test [2] it was 9.48%.
On the same counts, the results for `Cc1cc(Nc2ccc(C)c(Cl)c2)n2nc(C(F)(F)F)nc2n1` are 4.53% and 19.5%.
Taken in the same sequence, the figures for `Oc1ccc(Br)cc1CN1CCN(Cc2ccc(Cl)cc2)CC1` were 17.6% and 19.7%.
On to `COc1ccc(C(=O)C(CCC(CNC(C)(C)C)C(=O)c2ccc(OC)cc2)CNC(C)(C)C)cc1` (stereo not given), for which the inhibition at 25 µM in test [1] stood at 21%; in test [2], 10.9%.
Turning to `CCOC(=O)C1=C(C)N=c2sc(=Cc3ccccc3O)c(=O)n2C1c1ccc(OC)c2ccccc12` (stereo not given), the values for the inhibition at 25 µM in test [1] and in test [2] were 24.4% and 4%, respectively.
For the compound `FC(F)(F)c1cccc(Nc2nc(-c3ccccc3)nc3ncccc23)c1`, the inhibition at 25 µM is 7.32% in test [1] and 1.43% in test [2].
For `OC(CNC1CCCCC1)Cn1c2ccc(I)cc2c2cc(I)ccc21` (stereo not given), the values for the inhibition at 25 µM in test [1] and in test [2] were 10.9% and 16.9%, respectively.
